{
  "source": "patent US20150071918A1",
  "about": "“PEPTIDES FOR THE TREATMENT OF CANCER” (H. LEE MOFFITT CANCER CENTER AND RESEARCH INSTITUTE, INC., priority 2012, published 2015)",
  "assay_type_in_all_cases": "cell-based",
  "key": {"A549 cells": {"tested_on": "A549 cells", "test": "MTT viability, combination index with MEK inhibitor", "protocol": "FIG. 69. MTI-101 plus EGFR inhibitors are synergistic in lung cancer cell lines with EGFR activating mutations, and MTI-101 plus MEK inhibitors are synergistic in cell lines arboring activating RAS or BRAFF mutations. Values indicate average calculated combination index (CI). Additive (CI=1), synergism (CI<1) and, antagonism (CI>1). […] Cell viability was measured by the MTT assay. Data generated were used to calculate a Chou and Talalay Combination Index (CI)."}, "[1]": {"tested_on": "Caspase 3 activity and total ATP levels in AML cell lines", "test": "Markers of cell death in AML cell lines (Caspase 3 activity, ATP levels)", "protocol": "FIGS. 42A-42B. […] U937, HL-60 and NB4 cells were treated with varying doses of HM-27 for 24 hr and cell death was determined as described in Materials and Methods. U937 and NB4 cells (150,000) exposed to HM-27 for 24 h were collected and analyzed for Caspase 3 activity using the FITC Active Caspase-3 Apoptosis Kit (BDPharmingen) as per manufacturer's instructions. All figures are a representative of three independent experiments done in triplicates.\nFIGS. 43A-43C. Cell death in AML cell lines by HM-27 (MTI-101) is via necrosis. Drug-treated cells (50 μM for U937 and 75 μM for HL-60) were lysed in 2% Triton X-100 in PBS with protease inhibitors (Roche) and incubated on ice for 45 min with mixing every 15 min. The supernatant (lysate) was collected after centrifugation for 20 sec at 10K rcf and 4° C. […] Twenty microliters (20 μL) of the lysate was mixed with 100 μL of the (rL/L) reagent from the kit and the luminescence was measured immediately. The luminescence was corrected by subtracting the value obtained from the blank and was checked against a standard. The luminescence was then multiplied by 50 to represent the total ATP levels from the 1.2×10^6 cells collected. […]\nCells were collected after incubation with HM-27 and analyzed for markers of cell death indicative of either apoptosis, autophagy or necrosis. […] Cell death was assessed by TO-PRO-3 staining followed by FACS analysis."}, "H929-60 cell line": {"tested_on": "H929-60 cell line", "test": "Cross-resistance in cell line selected for resistance to HYD1", "conditions": "H929-60, selected for resistance to HYD1"}},
  "note": "*1 amine or outer side, *2 acyl side, *3 side chain or, on linkers, in order; H or OH if unused. Where a SMILES comes first, the peptide text is derived from it. Bridges are numbered along the chain shown (N, C = ends). [ ]: non-standard residue; d: D form. The star is where a group is joined. dProlinol(O-CH2CO) = O=C(COC[C@H]1CCCN1[*:1])[*:2]; N(2-Aminoethyl)Gly = O=C(CN(CCN[*:3])[*:1])[*:2]; Nle = CCCC[C@H](N)C(=O)O; Ms = CS(=O)(=O)*",
  "data": [
    {"compound": "CCCC[C@@H]1NC(=O)CN(S(C)(=O)=O)CCNC(=O)[C@H](CCCCN)NC(=O)[C@H](CC(C)C)NC(=O)[C@H](CCCCN)NC(=O)[C@H](CC(C)C)NC(=O)[C@H](CCCCN)NC(=O)COC[C@H]2CCCN2C(=O)[C@H](Cc2c[nH]c3ccccc23)NC(=O)[C@H](C)NC(=O)[C@H](C(C)C)NC(=O)[C@H](C(C)C)NC1=O", "note": "[MTI-101] (Ms-[N(2-Aminoethyl)Gly][Nle]VVAW[dProlinol(O-CH2CO)]KLKLK; lactam 1-C)", "values": [
      {"measurement": "combination with MEK inhibitor Selumetinib", "setting": "A549 cells", "result": "Synergistic growth"},
      {"measurement": "ATP levels in AML cell lines", "setting": "[1]", "result": "resulted in ATP depletion"},
      {"measurement": "Caspase 3 activation in AML cell lines", "setting": "[1]; 24 h", "result": "did not cause activation of Caspase 3"},
      {"measurement": "cross-resistance", "setting": "H929-60 cell line", "result": "cross-resistance in the H929-60 cell line"}
    ]}
  ]
}
